This note sets out measurements from the supplement of paper PMC8024199.

± gives the standard deviation of the averaged measurements.

Assay in all cases: drug sensitivity score (DSS) (DSS score); higher = more sensitive (stronger growth inhibition); extreme values may be limits of the assay
The test system of assay [1] is Ba/F3 P210-BCR-ABL1 RUNX1-/- (mouse). Put shortly: (§1)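 Each value is a drug sensitivity score derived from CellTiter-Glo luminescence scaled between vehicle and positive-control wells. Mouse Ba/F3 clones, CRISPR/Cas9-edited at a target exon or edited controls, were seeded at 10,000 cells per well in RPMI with 10% FBS and treated for 72 h at 37 °C and 5% CO2. Compounds from a 528-compound library were tested at five concentrations over a 10,000-fold range, and scores were averaged over two replicates.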

Assay [2] deals with Ba/F3 P210-BCR-ABL1 RUNX1-/mut (mouse). The gist of the method:
as §1

Assay [3] concerns Ba/F3 P210-BCR-ABL1 RUNX1wt/wt control (mouse). Put shortly:
as §1

As for `CCc1c2c(nc3ccc(O)cc13)-c1cc3c(c(=O)n1C2)COC(=O)[C@]3(O)CC` [SN-38], the drug sensitivity score in assay [1] was 33.2 ± 0.99; in assay [2], 29.1 ± 1.8; in assay [3] it was 26.9 ± 0.42.
For `CC[C@@H](C(=O)[C@@H](C)[C@@H](O)[C@H](C)[C@@H]1O[C@@H]([C@@H](CC)C(=O)O)CC[C@@H]1C)[C@H]1O[C@]2(C=C[C@@H](O)[C@]3(CC[C@@](C)([C@H]4CC[C@](O)(CC)[C@H](C)O4)O3)O2)[C@H](C)C[C@@H]1C` [Salinomycin], in that order: 19.6 ± 7.6, 17.6 ± 10 and 17 ± 8.3.
Consider `O=C(O)C1(C(=O)O)CCC1.[NH2-].[NH2-].[Pt+2]` [Carboplatin], for which the drug sensitivity score in assay [1] turned out to be 6.65 ± 1.8; in assay [2] it was 6.9 ± 1.8; in assay [3], 3.45 ± 0.21.
For `COc1cc(C)[nH]c(=O)c1CNC(=O)c1c(C)n([C@H](C)C2CCOCC2)c2ccccc12` [CPI-360], in that order: 0, 0 and 0.
For `COc1cc2c(Oc3ccc4[nH]c(C)cc4c3F)ncnc2cc1OCCCN1CCCC1` [Cediranib], in that order: 0, 0 and 0.
In the same order, the values of `NC(=O)c1cccc2cn(-c3ccc([C@@H]4CCCNC4)cc3)nc12` [Niraparib] are 7.8 ± 0.99, 8.15 ± 3.3 and 2.7 ± 0.71.
For the molecule `CCN1CCN(c2ccc(Nc3cc(N(C)C(=O)Nc4c(Cl)c(OC)cc(OC)c4Cl)ncn3)cc2)CC1` [Infigratinib], the drug sensitivity score in assay [1], in assay [2] and in assay [3] was 0 throughout.
For the molecule `CC(O)c1cc(C(=O)N[C@@H](C)Cn2ccc(-c3ccc(C#N)c(Cl)c3)n2)n[nH]1` (some centres not stated) [ODM-201], the drug sensitivity score in assay [1] was 2.55 ± 0.071; in assay [2], 2.05 ± 1.9; in assay [3], 0.
As for `COc1cc2c(NC3CCN(C(C)C)CC3)nc(C3CCCCC3)nc2cc1OCCCN1CCCC1` [UNC0638], the drug sensitivity score was 9.2 ± 0.57 in assay [1], 7.75 ± 2 in assay [2] and 1.45 ± 0.64 in assay [3].
In the same order, the values of `Cc1c(C(=O)Nc2ccc(N3C[C@@H](C)O[C@@H](C)C3)nc2)cccc1-c1ccc(OC(F)(F)F)cc1` [Sonidegib] are 1.3 ± 1.8, 1.3 ± 1.8 and 0.15 ± 0.21.
For the molecule `COC[C@H](NC(=O)c1cnc(C)s1)C(=O)N[C@@H](COC)C(=O)N[C@@H](Cc1ccccc1)C(=O)[C@@]1(C)CO1` [Oprozomib], the drug sensitivity score in assay [1] turned out to be 22.2 ± 1.3; in assay [2] it was 20.5 ± 1.6; in assay [3], 19.2 ± 0.35.
`Cc1cccc(CC(=O)N2CCc3c2ccc(-c2cn(C)c4ncnc(N)c24)c3F)n1`: the drug sensitivity score was found to be 1.85 ± 0.49 in assay [1], 0.55 ± 0.21 in assay [2] and 2.45 ± 0.35 in assay [3].
In the same order, the values of `CC(C)[C@@H](CS(=O)(=O)C(C)C)N1C(=O)[C@@](C)(CC(=O)O)C[C@H](c2cccc(Cl)c2)[C@H]1c1ccc(Cl)cc1` [AMG-232] are 12.7 ± 2.3, 11.2 ± 1.6 and 3.7 ± 0.28.
In the same order, the values of `Cc1c(F)cc(C(=O)NC2CC2)cc1-c1ccc(C(=O)NCC(C)(C)C)cn1` [Losmapimod] are 2.3 ± 2.4, 1.8 ± 2.5 and 0.15 ± 0.21.
For `O=C(NCc1ccncc1)C12CC3CC(C1)CC(c1ccc(Cl)cc1)(C3)C2`, in that order: 4.7 ± 0.57, 3.3 ± 1.8 and 2.8 ± 0.85.
On to `Cc1cn(-c2cc(NC(=O)c3ccc(C)c(Nc4nccc(-c5cnccn5)n4)c3)cc(C(F)(F)F)c2)cn1` [Radotinib], for which the values for the drug sensitivity score in assay [1], in assay [2] and in assay [3] were 28.9 ± 8.2, 30.9 ± 0.64 and 27.9 ± 0.14, respectively.
Take `CCNCCS(=O)(=O)NC[C@@]1(c2ccccc2)SC(NC(=O)C(C)(C)C)=NN1C(=O)C(C)(C)C` [Litronesib]: the results for the drug sensitivity score in assay [1], in assay [2] and in assay [3] were 24.2 ± 1.6, 21.5 ± 2.4 and 10.9 ± 0.28, respectively.
With `CC[C@H](CO)Nc1nc(NCc2ccccc2)c2ncn(C(C)C)c2n1` [Seliciclib], the drug sensitivity score in assay [1] worked out at 1.3 ± 0.14; in assay [2], 0.4 ± 0.57; in assay [3] it was 0.
For `CCCCNc1ncc(C(=O)NCc2ccc(-n3ccnc3)cc2)c(NC2CCC(O)CC2)n1` (configuration not stated) [UNC2881], in that order: 0.3 ± 0.42, 0 and 0.
For `COc1ccc(COc2cc3oc(=O)c4cc(C(C)O)ccc4c3cc2OC)cc1` (configuration not stated) [Palomid-529], in that order: 0.05 ± 0.071, 1.7 ± 2.4 and 0.4 ± 0.42.
Take `Cn1ncnc1[C@H]1c2n[nH]c(=O)c3cc(F)cc(c23)N[C@@H]1c1ccc(F)cc1` [Talazoparib]: the drug sensitivity score was 15 ± 5.5 in assay [1], 16.2 ± 5 in assay [2] and 2.7 ± 0.14 in assay [3].
Regarding `COCCOc1cnc2ccn([C@H](C)c3nnc4c(F)cc(-c5cnn(C)c5)cn34)c(=O)c2c1` [AMG-337], the drug sensitivity score in assay [1], in assay [2] and in assay [3] was 0 each time.
As to `O=S(=O)(c1cccc2c(O)nccc12)N1CCCNCC1` [Hydroxyfasudil], the drug sensitivity score in assay [1] was 0.15 ± 0.21; in assay [2], 0.4 ± 0.57; in assay [3], 0.2 ± 0.28.
For `CC[C@H](NC(=O)[C@H](C)NC)C(=O)N1C[C@@H](O)C[C@H]1Cc1c(-c2[nH]c3cc(F)ccc3c2C[C@@H]2C[C@H](O)CN2C(=O)[C@H](CC)NC(=O)[C@H](C)NC)[nH]c2cc(F)ccc12` [Birinapant], in that order: 14 ± 5.5, 4.15 ± 5.2 and 6.15 ± 0.071.
For `COc1ncc(-c2ccc3nccc(-c4ccnnc4)c3c2)cc1NS(=O)(=O)c1ccc(F)cc1F` [Omipalisib], in that order: 12.3 ± 1.4, 11.9 ± 3.4 and 7.8 ± 0.28.
In the same order, the values of `O=c1[nH]c(C2CCCN2)nc2c1oc1ccc(Cl)cc12` (configuration not stated) are 7.1 ± 1.1, 2.3 ± 2.3 and 0.
Regarding `CNc1nc(-c2ccc3c(N)n[nH]c3c2)cc(N2C[C@@H](C(=O)NC3CCCCC3)CC[C@H]2C)n1`, the drug sensitivity score was 7.15 ± 0.35 in assay [1], 4 ± 2.3 in assay [2] and 0 in assay [3].
In the same order, the values of `CCNc1nc(Nc2cc(F)c(C(=O)N3CCOCC3)cc2OC)ncc1C(F)(F)F` [GNE-7915] are 0, 0 and 0.
In the case of `Cc1ccc(NS(=O)(=O)c2cccc(C#N)c2)c2[nH]cc(C#N)c12` [E7820], the drug sensitivity score in assay [1] is 2 ± 0.99; in assay [2], 5.45 ± 2; in assay [3] it was 0.35 ± 0.21.
For the molecule `Nc1nc(NC2CC2)cc(-c2cccc(Cl)c2Cl)n1` [TH588], the drug sensitivity score came out at 5.45 ± 0.35 in assay [1], 4.45 ± 4.7 in assay [2] and 3.6 ± 1.1 in assay [3].
As for `CN[C@@H](C)C(=O)N[C@H]1CN(C(=O)CC(C)C)CC[C@H]2CC[C@@H](C(=O)NC(c3ccccc3)c3ccccc3)N2C1=O` [AT-406], the values for the drug sensitivity score in assay [1], in assay [2] and in assay [3] were 18.4 ± 1.8, 4.4 ± 6.2 and 13 ± 1.4, respectively.
Take `COc1cccc2c1c(O)c(C(=O)N(C)c1ccc(C(F)(F)F)cc1)c(=O)n2C` [Tasquinimod]: the drug sensitivity score in assay [1] was found to be 0.75 ± 1.1; in assay [2], 2.15 ± 3; in assay [3], 0.5 ± 0.71.
Turning to `CC(C)C[C@@H](C(=O)N[C@H](C(=O)OC1CCCC1)c1ccccc1)[C@H](O)C(=O)NO` [Tosedostat], the drug sensitivity score turned out to be 11.4 ± 1.7 in assay [1], 11.3 ± 4.3 in assay [2] and 1.85 ± 0.49 in assay [3].
For `Cc1nc(Nc2n[nH]c3c2CN(C(=O)N[C@H](CN(C)C)c2ccccc2)C3(C)C)c2sccc2n1`, in that order: 40.15 ± 0.35, 37.2 ± 0.64 and 24.85 ± 0.071.
In the same order, the values of `Nc1nc(N)c2nc(-c3cccc(O)c3)c(-c3cccc(O)c3)nc2n1` [TG100-115] are 3.1 ± 0.57, 4.65 ± 0.49 and 0.
Regarding `Oc1ccc2c(c1)CC[C@H](c1ccccc1)[C@@H]2c1ccc(OCCN2CCCC2)cc1` [Lasofoxifene], the drug sensitivity score came to 0.15 ± 0.21 in assay [1], 0.65 ± 0.92 in assay [2] and 0 in assay [3].
In the same order, the values of `CC[C@@H]1C(=O)N(C)c2cnc(Nc3ccc(C(=O)N[C@H]4CC[C@H](N5CCN(CC6CC6)CC5)CC4)cc3OC)nc2N1C(C)C` [Volasertib] are 11.15 ± 0.071, 10.3 ± 0.42 and 5.9 ± 0.28.
As for `Cc1cnc(NC(=O)Nc2cc(Br)c(C)cc2OC[C@@H]2CNCCO2)cn1` [Rabusertib], the drug sensitivity score in assay [1] stood at 3.25 ± 1.6; in assay [2], 3.3 ± 0.14; in assay [3] it was 0.45 ± 0.49.
In the case of `CCN(CC)CCCC(C)Nc1ccnc2cc(Cl)ccc12` (configuration not stated) [Chloroquine], the drug sensitivity score in assay [1] was 13.2 ± 5.2; in assay [2], 14.9 ± 5.6; in assay [3], 5.8 ± 0.28.
